Data from PMC7893776, “Selecting an anti-malarial clinical candidate from two potent dihydroisoquinolones” (Malaria Journal, 2021).
Where two headings read alike, the source gives them in different places. Each block holds one molecule with its values, some of them ahead of it.

Experiments:
[1] = Rat pharmacokinetics, single PO or IV dose; format: in vivo, male Sprague Dawley rats; settings: for fraction of the IV dose recovered in urine: 24-h sampling period; for AUC(0-inf): all dose levels 50–200 mg/kg, read-out: mean AUCinf
Text: Studies were undertaken to determine the plasma pharmacokinetics of SJ733 and SJ311. These studies included: (i) single oral gavage (PO) or intravenous (IV) dose administration to female C57BL/6 mice; (ii) single PO or IV dose administration to male Sprague Dawley (SD) rats; (iii) single PO or IV dose administration to male beagle dogs; (iv) toxicokinetic (TK) study following single PO administration to male SD rats. The PO and IV formulation used for mouse studies at SJCRH was 1% hydroxypropyl-beta-cyclodextrin (w/v), 10% ethanol (v/v), 10% propylene glycol (v/v), 40% PEG-400 (v/v) and 39% PBS (pH 7.4) isotonic (v/v). Compounds were dosed orally as suspensions, and intravenously as filtered solutions. Compound concentrations were confirmed post filtration using UV spectroscopy. The IV formulation used for rat studies (Monash University) was the same as that used for mice. For PO dosing to rats (Monash University) at 2 mg/kg, a suspension formulation was used containing 0.5% (w/v) hydroxypropyl methylcellulose, 0.5% (v/v) benzyl alcohol and 0.4% (v/v) Tween 80. The formulation used for rat studies at SRI (PO, high dose) was the same as that used in mouse PK studies. The formulation for the high dose TK study at SRI was 0.5% methylcellulose in sterile water. The formulation used for dog studies was the same as that used in mouse PK studies. The PO and IV PK of SJ733 and SJ311 were studied in overnight-fasted male Sprague Dawley rats. Rats had access to water ad libitum throughout the pre- and post-dose sampling period, and access to food was re-instated 4 h post-dose. […] Once collected, blood samples were centrifuged, supernatant plasma was removed and stored frozen (− 20 °C) until LC–MS analysis within 1 week of collection. The high dose levels of both compounds (50, 100, 200 mg/kg, PO, (+)-SJ733/311) were also independently tested by SRI, with a single oral gavage administration. Blood (through jugular vein) and urine were collected at time points up to 72 and 24 h post dose, respectively. Supernatant plasma was removed following centrifugation and stored frozen (− 70 °C) until LC–MS analysis. For toxicology studies, male Sprague Dawley rats were administered 50, 100, 250, 500, or 750 mg/kg of (r)-SJ733 or (r)-SJ311 by oral gavage (one dose per animal). Body weights were recorded on Day 1 prior to dose administration and on Day 4. Blood samples (400 µL) were collected at 4 and 24 h post drug administration from the retro-orbital sinus. Potassium EDTA treated plasma was collected and kept frozen at -70 °C for bioanalytical analysis. For studies at Monash University, rat plasma and urine samples were extracted utilizing protein precipitation with a twofold volume ratio of acetonitrile. SJ733, SJ311, and diazepam (IS) were detected using LC–MS/MS instrumentation. Aliquots (3 µL) were injected onto a Waters Acquity UPLC equipped with a Waters Micromass Xevo TQ MS/MS and separated using a Supelco Ascentis Express RP Amide column (50 × 2.1 mm, 2.7 µm) with a methanol–water gradient containing 0.05% formic acid. Calibration standards were prepared by spiking blank matrix (plasma or urine) and the calibration range was from 1 to 10,000 ng/mL for plasma or 2.5 to 5000 ng/mL for urine. Plasma and urine samples from the high dose rat PK studies were analyzed by SRI. In both matrices, the sample volume was 50 μL, and assay entailed the addition of 50 μL of internal standard solution to the standards and study samples. The compounds were used as reciprocal standards for one another (427 nM SJ733 in Milli-Q-Water for SJ571311 and 437 nM SJ311 in Milli-Q-Water for SJ733). These mixtures were then extracted with 1000 μL of ethyl acetate by vortexing for 10 min on a multi-tube vortex mixer at maximum speed followed by separation of the organic and aqueous phases by centrifugation (18,000×g, 5 min). […]

[2] = Microsomal stability, dog; format: in vitro ADME; settings: for CLint in vivo: scaled up using PBSF
Procedure: The metabolic stability assay was performed by incubating compounds individually (0.8, 4, or 20 µM) with mouse, rat, dog and human liver microsomes (Fisher, 0.5 mg/mL protein concentration) at 37 °C. The metabolic reaction was initiated by the addition of a NADPH-regenerating system and quenched at various time points by the addition of acetonitrile according to a published method.
The remaining concentration of each compound was measured as a ratio of peak area to the internal standard. The log peak area ratio was plotted vs. time (h), and the slope was determined to calculate the elimination rate constant [k = (− 2.303) * slope]. If deviation from first order kinetics was evident, only the initial linear portion of the plot was used to determine the rate constate, k. The half-life (h) was calculated as t1/2 = 0.693/k. Intrinsic clearance in vitro was calculated as CLintin vitro = (1000)*(0.693/t1/2*60)/0.5, where microsomal concentration in the reaction solution was 0.5 mg/mL; 1000 and 60 are scaling factors for volume (µL) and time (min), respectively. The intrinsic in vitro clearance was scaled to the intrinsic in vivo clearance using physiology based scaling factor (PBSF): CLint in vivo= CLint in vitro *PBSF: (microsome protein/gram liver) * (gram liver/kg b.w.), with PBSF: 47 (mouse), 47(rat), 58 (dog), 32 (human); and liver weight proportions: 54.9 (mouse), 36.6 (rat), 32.9 (dog) 25.7 (human).

[3] = dog microsomes, 0.8 µM, independent replicate to Table 4
[4] = dog microsomes, 4 µM, independent replicate to Table 4
[5] = dog microsomes, 20 µM, independent replicate to Table 4
[6] = male, Sprague Dawley, plasma, PO
[7] = male, Sprague Dawley, plasma, PO, read-out: terminal half-life, mean t1/2

SMILES: N#Cc1cc(NC(=O)[C@H]2c3ccccc3C(=O)N(CC(F)(F)F)[C@@H]2c2cccnc2)ccc1F [(+)-SJ733]
AUCinf ([1]; in vivo, iv, 0.1 mg/kg): 14.7 ± 0.7 µM·h | CL ([1]; in vivo, iv, 0.1 mg/kg): 11.3 ± 0.33 mL/min/kg | Dose in urine ([1]; in vivo, iv, 0.1 mg/kg): 1.6 ± 0.5% | Half-life ([1]; in vivo, iv, 0.1 mg/kg): 9.2 ± 0.4 h | Vss ([1]; in vivo, iv, 0.1 mg/kg): 3.3 ± 0.2 L/kg | AUCinf ([1]; in vivo, po, 1.7 mg/kg): 1.9 ± 0.6^ c h.µM | Cmax ([1]; in vivo, po, 1.7 mg/kg): 0.7 ± 0.1 µM | Dose in urine ([1]; in vivo, po, 1.7 mg/kg): 0.5 ± 0.3% | F% ([1]; in vivo, po, 1.7 mg/kg): 36.7 ± 12% | Tmax ([1]; in vivo, po, 1.7 mg/kg): 0.7 ± 0.3 h | AUCinf ([1]; in vivo, po, 1.9 mg/kg): 6.6 ± 1.2 µM·h | Cmax ([1]; in vivo, po, 1.9 mg/kg): 0.9 ± 0.1 µM | Dose in urine ([1]; in vivo, po, 1.9 mg/kg): 1.2 ± 0.4% | F% ([1]; in vivo, po, 1.9 mg/kg): 111 ± 19% | Half life ([1]; in vivo, po, 1.9 mg/kg): 11.3 ± 6.0 h | Tmax ([1]; in vivo, po, 1.9 mg/kg): 3.0 ± 0.9 h | AUCinf ([1]; in vivo, po, 50 mg/kg): 96.3 ± 5.8 µM·h | CL/F ([1]; in vivo, po, 50 mg/kg): 18.3 ± 1.7 mL/min/kg | Cmax ([1]; in vivo, po, 50 mg/kg): 11.1 ± 1.2 µM | F% ([1]; in vivo, po, 50 mg/kg): 74.5% | Half life ([1]; in vivo, po, 50 mg/kg): 7.7 ± 3.2 h | Tmax ([1]; in vivo, po, 50 mg/kg): 4 h | V/F ([1]; in vivo, po, 50 mg/kg): 12 ± 5.0 L/kg | AUCinf ([1]; in vivo, po, 100 mg/kg): 180 ± 23.2 µM·h | CL/F ([1]; in vivo, po, 100 mg/kg): 20 ± 1.7 mL/min/kg | Cmax ([1]; in vivo, po, 100 mg/kg): 16.6 ± 3.2 µM | F% ([1]; in vivo, po, 100 mg/kg): 69.6% | Half life ([1]; in vivo, po, 100 mg/kg): 10.3 ± 6.9 h | Tmax ([1]; in vivo, po, 100 mg/kg): 3.0 ± 1.7 h | V/F ([1]; in vivo, po, 100 mg/kg): 17 ± 9.0 L/kg | AUCinf ([1]; in vivo, po, 200 mg/kg): 330 ± 78.4 µM·h | CL/F ([1]; in vivo, po, 200 mg/kg): 21.7 ± 5 mL/min/kg | Cmax ([1]; in vivo, po, 200 mg/kg): 27.9 ± 3.8 µM | Dose in urine ([1]; in vivo, po, 200 mg/kg): 0.2 ± 0.1% | F% ([1]; in vivo, po, 200 mg/kg): 63.8% | Half life ([1]; in vivo, po, 200 mg/kg): 7.7 ± 3.3 h | Tmax ([1]; in vivo, po, 200 mg/kg): 4.0 ± 3.5 h | V/F ([1]; in vivo, po, 200 mg/kg): 15 ± 9.0 L/kg | CLint ([2]; dog microsomes, 0.8 µM): < 7 µl/min/mg protein | t1/2 ([2]; dog microsomes, 0.8 µM): > 4 h | CLint in vitro [2, 3]: <7 µl/min/mg protein | CLint in vivo ([2]; dog microsomes, 0.8 µM): <8.3 mL/min/kg | CLint in vitro [2, 4]: <7 µl/min/mg protein | CLint in vivo ([2]; dog microsomes, 4 µM): <8.3 mL/min/kg | CLint in vitro [2, 5]: <7 µl/min/mg protein | CLint in vivo ([2]; dog microsomes, 20 µM): <8.3 mL/min/kg

SMILES: N#Cc1cc(NC(=O)C2c3ccccc3C(=O)N(CC(F)(F)F)C2c2cn[nH]c2)ccc1F (racemic) [(r)-SJ311]
CLint in vitro ([2]; dog microsomes, 20, 4, 0.8 µM): <7 µl/min/mg protein | CLint in vivo ([2]; dog microsomes, 20, 4, 0.8 µM): <8.3 mL/min/kg

SMILES: N#Cc1cc(NC(=O)[C@H]2c3ccccc3C(=O)N(CC(F)(F)F)[C@@H]2c2cn[nH]c2)ccc1F [(+)-SJ311]
Half life ([1]; in vivo, po, 20.4 mg/kg): 7.9, 7.9 h | AUCinf ([1]; in vivo, po, 50 mg/kg): 34.1 ± 8.7 µM·h | CL/F ([1]; in vivo, po, 50 mg/kg): 56.7 ± 16.7 mL/min/kg | Cmax ([1]; in vivo, po, 50 mg/kg): 4.4 ± 2 µM | F% ([1]; in vivo, po, 50 mg/kg): 20.5% | Half life ([1]; in vivo, po, 50 mg/kg): 3.5 ± 0.4 h | Tmax ([1]; in vivo, po, 50 mg/kg): 1.2 ± 0.8 h | V/F ([1]; in vivo, po, 50 mg/kg): 17 ± 7.0 L/kg | AUCinf ([1]; in vivo, po, 100 mg/kg): 61.9 ± 11.5 µM·h | CL/F ([1]; in vivo, po, 100 mg/kg): 60 ± 12 mL/min/kg | Cmax ([1]; in vivo, po, 100 mg/kg): 7.1 ± 0.81 µM | F% ([1]; in vivo, po, 100 mg/kg): 18.6% | Half life ([1]; in vivo, po, 100 mg/kg): 4.3 ± 2.2 h | Tmax ([1]; in vivo, po, 100 mg/kg): 4 h | V/F ([1]; in vivo, po, 100 mg/kg): 21 ± 8.0 L/kg | AUCinf ([1]; in vivo, po, 200 mg/kg): 65.8 ± 12.6 µM·h | CL/F ([1]; in vivo, po, 200 mg/kg): 112 ± 8.3 mL/min/kg | Cmax ([1]; in vivo, po, 200 mg/kg): 9.4 ± 5.4 µM | Dose in urine ([1]; in vivo, po, 200 mg/kg): 1.1 ± 0.4% | F% ([1]; in vivo, po, 200 mg/kg): 9.9% | Half life ([1]; in vivo, po, 200 mg/kg): 4 h | Tmax ([1]; in vivo, po, 200 mg/kg): 3.2 ± 4.2 h | V/F ([1]; in vivo, po, 200 mg/kg): 38 L/kg | CLint ([2]; dog microsomes, 0.8 µM): < 7 µl/min/mg protein | t1/2 ([2]; dog microsomes, 0.8 µM): > 4 h

SMILES: N#Cc1cc(NC(=O)C2c3ccccc3C(=O)N(CC(F)(F)F)C2c2cccnc2)ccc1F (racemic) [(r)-SJ733]
Tmax ([1]; in vivo, po, 19.8 mg/kg): 1.0 h | CLint in vitro [2, 3]: <7 µl/min/mg protein | CLint in vivo ([2]; dog microsomes, 0.8 µM): <8.3 mL/min/kg | CLint in vitro [2, 4]: <7 µl/min/mg protein | CLint in vivo ([2]; dog microsomes, 4 µM): <8.3 mL/min/kg | CLint in vitro [2, 5]: <7 µl/min/mg protein | CLint in vivo ([2]; dog microsomes, 20 µM): <8.3 mL/min/kg

Further lines, results first:

fraction of the IV dose recovered in urine ([1]; IV): ca. 22% | AUC(0-inf) [1, 6]: 34.1 to 65.8 µM·h | Half-life [1, 7]: 3.5 to 7.9 h
SMILES: N#Cc1cc(NC(=O)[C@H]2c3ccccc3C(=O)N(CC(F)(F)F)[C@@H]2c2cn[nH]c2)ccc1F [SJ311]

fraction of the IV dose recovered in urine ([1]; IV): ~1.5% | Half-life ([1]; male, Sprague Dawley, plasma, IV, isomers and racemate at similar doses, read-out: IV half-lives): 5 to 18 h | AUC(0-inf) [1, 6]: 96.3 to 330 µM·h | Half-life [1, 7]: 7.7 to 10.3 h | bioavailability ([1]; male, Sprague Dawley, plasma, po, summary over the oral doses studied, read-out: Rat F (oral bioavailability)): 60 to 100% | clearance ([1]; male, Sprague Dawley, plasma, read-out: measured in vivo clearance (converted)): ~11.7 mL/min/kg | Rat F (oral bioavailability) ([1]; summary over the oral doses studied): 63-122%
SMILES: N#Cc1cc(NC(=O)[C@H]2c3ccccc3C(=O)N(CC(F)(F)F)[C@@H]2c2cccnc2)ccc1F (racemic) [SJ733]
